The source made the active and inactive calls. No cut-off for these calls is given here.
Key:
[1] = tested on: HGC-27; assay: Induction of apoptosis in human HGC-27 cells assessed as late apoptotic cells at 10 uM measured after 24 hrs by AnnexinV-FITC/PI staining based flowcytometry method (reference value: 5.4%); format: functional
[2] = tested on: HGC-27; assay: Induction of apoptosis in human HGC-27 cells assessed as late apoptotic cells at 6 uM measured after 24 hrs by AnnexinV-FITC/PI staining based flowcytometry method (reference value: 5.4%); format: functional
[3] = tested on: HGC-27; assay: Induction of apoptosis in human HGC-27 cells assessed as viable cells at 10 uM measured after 24 hrs by AnnexinV-FITC/PI staining based flowcytometry method (reference value: 91.1%); format: functional; settings: read-out: Activity
[4] = Toxicity in nude mouse xenografted with human AGS cells assessed as effect on body weight at 10 to 20 mg/kg, ip administered every other day and monitored every 3 days; format: organism-based; settings: in vivo, 72 h, dose 10-20 mg/kg, time 3 day
[5] = tested on: AGS; assay: Induction of apoptosis in human AGS cells assessed as late apoptotic cells at 8 uM measured after 24 hrs by AnnexinV-FITC/PI staining based flowcytometry method (reference value: 3.4%); format: functional
[6] = tested on: AGS; assay: Induction of apoptosis in human AGS cells assessed as increase in cleaved caspase-9 level at 0 to 10 uM by Western blot analysis; format: functional, cell-based; settings: dose 0-10 µM
[7] = tested on: AGS; assay: Induction of cell cycle arrest in human AGS cells assessed as accumulation of cells at G0/G1 phase at 6 uM incubated for 24 hrs propidium iodide staining-based flow cytometric analysis (reference value: 46.51%); format: functional
[8] = tested on: HGC-27; assay: Induction of apoptosis in human HGC-27 cells assessed as early apoptotic cells at 8 uM measured after 24 hrs by AnnexinV-FITC/PI staining based flowcytometry method (reference value: 3.3%); format: functional
[9] = tested on: AGS; assay: Induction of apoptosis in human AGS cells assessed as viable cells at 6 uM measured after 24 hrs by AnnexinV-FITC/PI staining based flowcytometry method (reference value: 95.2%); format: functional; settings: read-out: Activity
[10] = tested on: AGS; assay: Induction of apoptosis in human AGS cells transfected with pcDNA3.1-Drp1 plasmid to overexpress DRP1 assessed as late apoptotic cells and measured after 24 hrs by AnnexinV-FITC/PI staining based flow cytometry method (reference value: 2.1 %); format: functional
[11] = Toxicity in nude mouse xenografted with human AGS cells assessed as effect on alanine aminotransferase level at 10 to 20 mg/kg, ip administered every other day and monitored every 3 days; format: organism-based; settings: in vivo, 72 h, dose 10-20 mg/kg, time 3 day
[12] = tested on: AGS; assay: Antitumor activity against human AGS cells xenografted in nude mouse assessed as downregulation of p-DRP1 levels at 10 to 20 mg/kg, ip administered every other day and monitored every 3 days; format: functional, organism-based; settings: dose 10-20 mg/kg, time 3.0 day
[13] = tested on: HGC-27; assay: Induction of apoptosis in human HGC-27 cells transfected with pcDNA3.1-Drp1 plasmid to overexpress DRP1 assessed as late apoptotic cells measured after 24 hrs by AnnexinV-FITC/PI staining based flow cytometry method (reference value: 2.0%); format: functional
[14] = tested on: AGS; assay: Induction of apoptosis in human AGS cells assessed as necrotic cells at 8 uM measured after 24 hrs by AnnexinV-FITC/PI staining based flowcytometry method (reference value: 0.2%); format: functional
[15] = tested on: HGC-27; assay: Induction of cell cycle arrest in human HGC-27 cells assessed as accumulation of cells at G0/G1 phase at 10 uM incubated for 24 hrs propidium iodide staining-based flow cytometric analysis (reference value: 45.21%); format: functional
[16] = tested on: AGS; assay: Induction of apoptosis in human AGS cells assessed as necrotic cells at 10 uM measured after 24 hrs by AnnexinV-FITC/PI staining based flowcytometry method (reference value: 0.2%); format: functional
[17] = tested on: AGS; assay: Induction of apoptosis in human AGS cells assessed as viable cells at 10 uM measured after 24 hrs by AnnexinV-FITC/PI staining based flowcytometry method (reference value: 95.2%); format: functional; settings: read-out: Activity
[18] = tested on: AGS; assay: Induction of apoptosis in human AGS cells assessed as late apoptotic cells measured after 24 hrs by AnnexinV-FITC/PI staining based flow cytometry method (reference value: 2.4%); format: functional
[19] = tested on: AGS; assay: Induction of apoptosis in human AGS cells assessed as early apoptotic cells at 10 uM measured after 24 hrs by AnnexinV-FITC/PI staining based flowcytometry method (reference value: 1.2%); format: functional
[20] = tested on: HGC-27; assay: Induction of mitochondrial dysfunction in human HGC-27 cells assessed as decrease in mitochondrial membrane potential measured after 24 hrs by JC-1 staining based flow cytometry; format: functional, cell-based; settings: DDE = dose-dependent effect
[21] = tested on: AGS; assay: Induction of apoptosis in human AGS cells assessed as necrotic cells at 6 uM measured after 24 hrs by AnnexinV-FITC/PI staining based flowcytometry method (reference value: 0.2%); format: functional
[22] = tested on: HGC-27; assay: Induction of apoptosis in human HGC-27 cells assessed as upregulation of Bax level at 0 to 10 uM by Western blot analysis; format: functional, cell-based; settings: dose 0-10 µM
[23] = tested on: AGS; assay: Induction of mitochondrial dysfunction in human AGS cells assessed as decrease in mitochondrial membrane potential measured after 24 hrs by JC-1 staining based flow cytometry; format: functional, cell-based; settings: DDE = dose-dependent effect
[24] = tested on: AGS; assay: Induction of apoptosis in human AGS cells assessed as viable cells at 8 uM measured after 24 hrs by AnnexinV-FITC/PI staining based flowcytometry method (reference value: 95.2%); format: functional; settings: read-out: Activity
[25] = Toxicity in nude mouse xenografted with human AGS cells assessed as effect on lung morphology at 10 to 20 mg/kg, ip administered every other day and monitored every 3 days by Hematoxyin-eosin staining based analysis; format: organism-based; settings: in vivo, 72 h, dose 10-20 mg/kg, time 3 day
[26] = tested on: HGC-27; assay: Induction of cell cycle arrest in human HGC-27 cells assessed as decrease in Cyclin D1 level at 0 to 10 uM by Western blot analysis; format: functional, cell-based; settings: dose 0-10 µM
[27] = tested on: AGS; assay: Induction of apoptosis in human AGS cells transfected with pcDNA3.1-Drp1 plasmid to overexpress DRP1 assessed as viable cells and measured after 24 hrs by AnnexinV-FITC/PI staining based flow cytometry method (reference value: 95.6 %); format: functional
[28] = tested on: AGS; assay: Induction of apoptosis in human AGS cells transfected with pcDNA3.1-Drp1 plasmid to overexpress DRP1 assessed as necrotic cells and measured after 24 hrs by AnnexinV-FITC/PI staining based flow cytometry method (reference value: 0.2 %); format: functional
[29] = tested on: HGC-27; assay: Inhibition of mitochondrial fission in human HGC-27 cells assessed as reduction in mitochondrial elongated fragments at 0 to 6 uM measured after 24 hrs by mitotracker based confocal microscopy; format: functional, cell-based; settings: dose 0-6 µM
[30] = tested on: HGC-27; assay: Induction of apoptosis in human HGC-27 cells assessed as early apoptotic cells at 10 uM measured after 24 hrs by AnnexinV-FITC/PI staining based flowcytometry method (reference value: 3.3%); format: functional
[31] = tested on: HGC-27; assay: Induction of cell cycle arrest in human HGC-27 cells assessed as accumulation of cells at G0/G1 phase at 6 uM incubated for 24 hrs propidium iodide staining-based flow cytometric analysis (reference value: 45.21%); format: functional
[32] = tested on: HGC-27; assay: Inhibition of colony formation of human HGC-27 cells assessed as reduction in colony number at 0 to 10 uM measured after 24 hrs by crystal violet staining assay; format: functional, cell-based; settings: dose 0-10 µM
[33] = tested on: AGS; assay: Induction of apoptosis in human AGS cells assessed as necrotic cells measured after 24 hrs by AnnexinV-FITC/PI staining based flow cytometry method (reference value: 0.1%); format: functional

Compound `CC(C)=CCC12Oc3cc(O)ccc3C1(O)Oc1cc(O)c([C@H]3C=C(C)C[C@H](c4ccc(O)cc4O)[C@H]3C(=O)c3ccc(O)cc3O)c(O)c1C2=O` (stereo partly drawn) has an Activity [1] of 15.9%, an Activity [2] of 10% and a viability at 10 µM [3] of 72.4%. The Activity [4] was “Non-Toxic”, the Activity [5] was 7.9% and the Activity [6] was “Active”. It also gave an Activity [7] of 54.7%, an Activity [8] of 4% and a viability at 6 µM [9] of 90.1%. For the same compound, the Activity [10] was 6.8%, the Activity [11] was “Non-Toxic” and the Activity [12] was “Active”. For the same compound, the Activity [13] was 1.8%, the Activity [14] was 0.3% and the Activity [15] was 64.2%. For the same compound, the Activity [16] was 0.3%, the viability at 10 µM [17] was 81.2% and the Activity [18] was 7.6%. The Activity [19] was 3.2%, the Activity [20] was “Dde” and the Activity [21] was 0.2%. For the same compound, the Activity [22] was “Active”, the Activity [23] was “Dde” and the viability at 8 µM [24] was 89.8%. For the same compound, the Activity [25] was “Non-Toxic”, the Activity [26] was “Active” and the Activity [27] was 90.3%. For the same compound, the Activity [28] was 0.1%, the inhibition [29] was “Active” and the Activity [30] was 10.3%. For the same compound, the Activity [31] was 61.3%, the inhibition [32] was “Active” and the Activity [33] was 0.1%.
